Results reported in US12538924B2, “Pesticidally active heterocyclic derivatives with sulfur containing substituents” (SYNGENTA CROP PROTECTION AG, priority 2019, dated 2026).

How the values were obtained:
Assay type in all cases: in vivo
[1] = system: Nilaparvata lugens (Brown Plant Hopper); assay: Nilaparvata lugens (Brown Plant Hopper): Larvicide, Feeding/Contact; settings: 168 h, application rate of 50 ppm, N3 nymphs on sprayed rice plants, 7 days after the treatment
Description: Example B10: Nilaparvata lugens (Brown Plant Hopper): Larvicide, Feeding/Contact
Rice plants were treated with the diluted test solutions in a spray chamber. After drying plants were infested with ˜20 N3 nymphs. 7 days after the treatment samples were assessed for mortality and growth regulation.

[2] = system: Frankliniella occidentalis (Western Flower Thrips); assay: Frankliniella occidentalis (Western Flower Thrips): Feeding/Contact Activity; settings: foliar, 168 h, application rate of 200 ppm, population of mixed ages on sprayed sunflower leaf discs, 7 days after infestation
Description: Example B4: Frankliniella occidentalis (Western Flower Thrips): Feeding/Contact Activity
Sunflower leaf discs were placed on agar in 24-well microtiter plates and sprayed with aqueous test solutions prepared from 10'000 DMSO stock solutions. After drying the leaf discs were infested with a Frankliniella population of mixed ages. The samples were assessed for mortality 7 days after infestation.

[3] = system: Diabrotica Balteata (Corn Root Worm); assay: Diabrotica balteata (Corn Root Worm), sprayed maize sprouts; settings: 96 h, application rate of 200 ppm, L2 larvae on sprayed maize sprouts, 4 days after infestation, read-out: effect in at least one of the two categories (mortality or growth inhibition)
Description: Example B2: Diabrotica Balteata (Corn Root Worm)
Maize sprouts placed onto an agar layer in 24-well microtiter plates were treated with aqueous test solutions prepared from 10'000 ppm DMSO stock solutions by spraying. After drying, the plates were infested with L2 larvae (6 to 10 per well). The samples were assessed for mortality and growth inhibition in comparison to untreated samples 4 days after infestation.

[4] = system: Myzus persicae (Green Peach Aphid); assay: Myzus persicae (Green Peach Aphid): Feeding/Contact Activity; settings: foliar, 144 h, application rate of 200 ppm, aphid population of mixed ages on sprayed sunflower leaf discs, 6 days after infestation
Description: Example B6: Myzus persicae (Green Peach Aphid): Feeding/Contact Activity
Sunflower leaf discs were placed onto agar in a 24-well microtiter plate and sprayed with aqueous test solutions prepared from 10'000 ppm DMSO stock solutions. After drying, the leaf discs were infested with an aphid population of mixed ages. The samples were assessed for mortality 6 days after infestation.

[5] = system: Nilaparvata lugens (Brown Plant Hopper); assay: Nilaparvata lugens (Brown Plant Hopper): Igr, Feeding/Contact; settings: 360 h, application rate of 50 ppm, sprayed rice plants, N3 nymphs, assessed for effect on F1 generation 15 days after the treatment
Description: Example B11: Nilaparvata lugens (Brown Plant Hopper): Igr, Feeding/Contact
Rice plants were treated with the diluted test solutions in a spray chamber. After drying plants were infested with ˜20 N3 nymphs. 7 days after treatment adults were removed and 15 days after the treatment samples were assessed for effect on F1 generation.

[6] = system: Nilaparvata lugens (Brown Plant Hopper); assay: Nilaparvata lugens (Brown Plant Hopper): Larvicide, Systemic into Water; settings: 168 h, test rate of 12.5 ppm, rice plants in nutritive solution, N3 nymphs, 7 days after infestation
Description: Example B12: Nilaparvata lugens (Brown Plant Hopper): Larvicide, Systemic into Water
Rice plants cultivated in a nutritive solution were treated with the diluted test solutions into nourishing cultivation system. 1 day after application plants were infested with ˜20 N3 nymphs. 7 days after infestation samples were assessed for mortality and growth regulation.

[7] = system: Plutella xylostella (Diamond Back Moth); assay: Plutella xylostella (Diamond Back Moth), treated artificial diet; settings: 192 h, application rate of 200 ppm, eggs on treated artificial diet, 8 days after infestation, read-out: effect in at least one of the two categories (mortality or growth inhibition)
Description: Example B5: Plutella xylostella (Diamond Back Moth)
24-well microtiter plates with artificial diet were treated with aqueous test solutions prepared from 10'000 ppm DMSO stock solutions by pipetting. After drying, Plutella eggs were pipetted through a plastic stencil onto a gel blotting paper and the plate was closed with it. The samples were assessed for mortality and growth inhibition in comparison to untreated samples 8 days after infestation.

[8] = system: Spodoptera littoralis (Egyptian Cotton Leaf Worm); assay: Spodoptera littoralis (Egyptian Cotton Leaf Worm), sprayed cotton leaf discs; settings: foliar, 72 h, application rate of 200 ppm, L1 larvae on sprayed cotton leaf discs, 3 days after infestation, read-out: control (mortality, anti-feeding effect or growth inhibition)
Description: Example B8: Spodoptera littoralis (Egyptian Cotton Leaf Worm)
Cotton leaf discs were placed onto agar in 24-well microtiter plates and sprayed with aqueous test solutions prepared from 10'000 ppm DMSO stock solutions. After drying the leaf discs were infested with five L1 larvae. The samples were assessed for mortality, anti-feeding effect, and growth inhibition in comparison to untreated samples 3 days after infestation. Control of Spodoptera littoralis by a test sample is given when at least one of the categories mortality, anti-feedant effect, and growth inhibition is higher than the untreated sample.

[9] = system: Myzus persicae (Green Peach Aphid); assay: Myzus persicae (Green Peach Aphid): Systemic Activity; settings: 144 h, test rate of 24 ppm, roots of infested pea seedlings placed into test solutions, 6 days
Description: Example B7: Myzus persicae (Green Peach Aphid): Systemic Activity
Roots of pea seedlings infested with an aphid population of mixed ages were placed directly into aqueous test solutions prepared from 10'000 DMSO stock solutions. The samples were assessed for mortality 6 days after placing seedlings into test solutions.

[10] = system: Euschistus heros (Neotropical Brown Stink Bug); assay: Euschistus heros (Neotropical Brown Stink Bug), sprayed soybean leaves; settings: 120 h, application rate of 200 ppm, N2 nymphs on sprayed soybean leaves, 5 days after infestation, read-out: effect in at least one of the two categories (mortality or growth inhibition)
Description: Example B3: Euschistus heros (Neotropical Brown Stink Bug)
Soybean leaves on agar in 24-well microtiter plates were sprayed with aqueous test solutions prepared from 10'000 ppm DMSO stock solutions. After drying the leaves were infested with N2 nymphs. The samples were assessed for mortality and growth inhibition in comparison to untreated samples 5 days after infestation.

[11] = system: Bemisia tabaci (Cotton White Fly); assay: Bemisia tabaci (Cotton White Fly): Feeding/Contact Activity; settings: foliar, 144 h, application rate of 200 ppm, adult white flies on sprayed cotton leaf discs, 6 days after incubation
Description: Example B1: Bemisia tabaci (Cotton White Fly): Feeding/Contact Activity
Cotton leaf discs were placed on agar in 24-well microtiter plates and sprayed with aqueous test solutions prepared from 10'000 ppm DMSO stock solutions. After drying the leaf discs were infested with adult white flies. The samples were checked for mortality 6 days after incubation.

[12] = system: Tetranychus urticae (Two-Spotted Spider Mite); assay: Tetranychus urticae (Two-Spotted Spider Mite): Feeding/Contact Activity; settings: foliar, 192 h
Description: Example B9: Tetranychus urticae (Two-Spotted Spider Mite): Feeding/Contact Activity
Bean leaf discs on agar in 24-well microtiter plates were sprayed with aqueous test solutions prepared from 10'000 ppm DMSO stock solutions. After drying the leaf discs were infested with a mite population of mixed ages. The samples were assessed for mortality on mixed population (mobile stages) 8 days after infestation.

CCS(=O)(=O)c1cc(N(C)C(C)=O)cnc1N1Cc2cnc(C(F)(F)F)cc2C1=O [Compound P3, N-[5-ethylsulfonyl-6-[1-oxo-6-(trifluoromethyl)-3H-pyrrolo[3,4-c]pyridin-2-yl]-3-pyridyl]-N-methyl-acetamide]
≥ 80%: mortality at 50 ppm [1] | mortality at 200 ppm [2] | percent effect (mortality or growth inhibition) at 200 ppm [3] | mortality at 200 ppm [4] | mortality at 50 ppm [5] | mortality at 12.5 ppm [6] | percent effect (mortality or growth inhibition) at 200 ppm [7] | percent control (mortality, anti-feedant effect or growth inhibition) at 200 ppm [8] | mortality at 24 ppm [9] | percent effect (mortality or growth inhibition) at 200 ppm [10]

CCS(=O)(=O)c1cc(C2(C#N)CC2)cnc1N1Cc2cnc(C(F)(F)F)cc2C1=O [Compound P8, 1-[5-ethylsulfonyl-6-[1-oxo-6-(trifluoromethyl)-3H-pyrrolo[3,4-c]pyridin-2-yl]-3-pyridyl]cyclopropanecarbonitrile]
≥ 80%: mortality at 50 ppm [1] | mortality at 200 ppm [2] | percent effect (mortality or growth inhibition) at 200 ppm [3] | mortality at 200 ppm [4] | mortality at 50 ppm [5] | mortality at 12.5 ppm [6] | mortality at 200 ppm [11] | percent effect (mortality or growth inhibition) at 200 ppm [7] | percent control (mortality, anti-feedant effect or growth inhibition) at 200 ppm [8] | mortality at 24 ppm [9] | percent effect (mortality or growth inhibition) at 200 ppm [10]

N#CC1(c2cnc(N3Cc4cnc(C(F)(F)F)cc4C3=O)c(S(=O)(=O)CC3CC3)c2)CC1 [Compound P28, 1-[5-(cyclopropylmethylsulfonyl)-6-[1-oxo-6-(trifluoromethyl)-3H-pyrrolo[3,4-c]pyridin-2-yl]-3-pyridyl]cyclopropanecarbonitrile]
≥ 80%: percent effect (mortality or growth inhibition) at 200 ppm [3] | mortality at 200 ppm [4] | mortality at 200 ppm [11] | percent effect (mortality or growth inhibition) at 200 ppm [7] | percent control (mortality, anti-feedant effect or growth inhibition) at 200 ppm [8] | mortality at 200 ppm [12] | percent effect (mortality or growth inhibition) at 200 ppm [10]
